Measured values as given in patent US8722373B2, “Contaminant control in Zymomonas fermentation using virginiamycin” (E I du Pont de Nemours and Company, priority 2012, dated 2014).

Experiments:
[1] = test system: Zymomonas mobilis strain ZM4; conditions: concentrations that are safe to use with yeast; Agrawan and Basappa 1996; cited from earlier work
Z. mobilis strain ZW705 = experiment: Tolerance of Z. mobilis to virginiamycin: growth in clarified MD07#3 hydrolysate; assay type: cell-based, Zymomonas mobilis; conditions: 2.5 ppm and 5 ppm virginiamycin; clarified cellulosic biomass hydrolysate medium, conditions of Example 1
Description: Z. mobilis strain ZW705 (described in General Methods) inoculum was prepared by reviving 2 mL of OD-10 frozen stock in MRM3G6 medium (10 g/L BBL yeast extract, 2 g/L KH2PO4, 1 g/L MgSO4*7H2O, 60 g/L glucose, pH 5.5) at 33° C. for ˜8 hr. This culture was used to inoculate tubes containing clarified MD07#3 hydrolysate (see General Methods) supplemented with 2 g/L yeast extract and various virginiamycin preparations at a 20% (final volume) inoculation rate, producing an initial OD of ˜0.5. Stocks of the virginiamycin-containing agents Lactrol®, Lactoside V™ or Lactoside 247™ were prepared at 1000 ppm in ethanol. These agents were added to the media at 2.5 ppm, 5 ppm, 10 ppm, or 20 ppm. […] The tubes were maintained at 33° C. with shaking for 32 hours, with growth monitored by measuring OD600.

[2] = test system: Lactobacillus plantarum strain ATCC 8014; experiment: Contamination control in Z. mobilis seed medium (lactic acid formation); assay type: cell-based; conditions: fermentation broth with media lacking cellulosic biomass hydrolysate
Description: (§1) Fermentation samples were taken at timed intervals and analyzed for EtOH, residual sugars, and other metabolic products such as acetic acid, lactic acid, and glycerol using either a Waters HPLC system (Alliance system, Waters Corp., Milford, Mass.) or an Agilent 1100 Series LC; conditions=0.6 mL/min of 0.01 N H2SO4, injection volume=5 μL, autosampler temperature=10° C., column temperature=55° C., run time=25 min, detection by refractive index (maintained at 40° C.). The HPLC column was purchased from BioRad (Aminex HPX-87H, BioRad Inc., Hercules, Calif.). Analytes were quantified by refractive index detection and compared to known standards.
Z. mobilis strain ZW705 (described in General Methods) inoculum was prepared by reviving 2 mL of OD-10 frozen stock in MRM3G6 medium (10 g/L BBL yeast extract, 2 g/L KH2PO4, 1 g/L MgSO4*7H2O, 60 g/L glucose, pH 5.5) at 33° C. for ˜8 hr, at which point the OD was ˜2. Lactobacillus plantarum strain ATCC 8014 inoculum was prepared by inoculating MRS medium with an individual colony and allowing growth at 33° C. for 8 hr, at which point the OD was ˜0.4.
Seed medium (10 g/L Amberex695 yeast extract, 2 g/L KH2PO4, 5 g/L MgSO4*7H2O, 10 mM sorbitol, 150 g/L glucose, pH 5.5) was prepared and sterilized by autoclaving (121° C., 30 min). […]

L. plantarum = experiment: Contaminated Z. mobilis hydrolysate fermentation with Lactrol in the medium (lactic acid); assay type: cell-based, Lactobacillus plantarum; conditions: fermentation broth with media containing cellulosic biomass hydrolysate
Description: as §1
To determine the Lactrol® dose required to prevent lactic acid formation during hydrolysate fermentation, a portion of intentionally-contaminated seed culture F1067 at EFT=19.3 hr (from Example 1) was used as a seed culture to inoculate cob hydrolysate medium (FRF13; see General Methods) (adjusted to pH 5.8, +10 mM sorbitol) at 10 vol % (final volume) containing either 0 ppm (sample F1069) or 2 ppm (sample F1071) of Lactrol®, which was then fermented at 33° C. (reduced to 30° C. at EFT=21 hr) and pH 5.8 (adjusted with 4 N NaOH). […]

Row | Molecule | effect on growth of / safety for Zymomonas [1] | growth of Zymomonas cells (OD600) compared with absence of virginiamycin (Z. mobilis strain ZW705) | concentration of virginiamycin that controls contaminating bacteria without affecting glucose utilization and ethanol production of Zymomonas cells [2] | concentration of virginiamycin that controls contaminating bacteria while maintaining typical ethanol production (L. plantarum)
1 | polymixin | inhibitory to growth |  |  | 
2 | CC1(C)S[C@@H]2[C@H](NC(=O)Cc3ccccc3)C(=O)N2[C@H]1C(=O)O [penicillin G] | safe for use with Zymomonas |  |  | 
3 | virginiamycin |  | improved growth | about 2 ppm | at least 10 ppm
4 | [H]/N=C(/N)N[C@H]1[C@H](O)[C@@H](O)[C@H](O[C@@H]2O[C@@H](C)[C@](O)(C=O)[C@H]2O[C@@H]2O[C@@H](CO)[C@H](O)[C@@H](O)[C@@H]2NC)[C@@H](N/C(N)=N\[H])[C@@H]1O [streptomycin] | inhibitory to growth |  |  | 
